Experimental data published in ChEMBL document CHEMBL1201862, “PubChem BioAssay data set” (2004).
The source made the active and inactive calls.

Tests used:
[1] = molecular target: Galanin receptor type 3 (Homo sapiens, UniProt O60755); test: Fluorescence-based cell-based primary high throughput dose response assay to identify antagonists of the Galanin Receptor 3 (GalR3).; type: functional
[2] = cells; type: functional, cell-based; details: HEK-CNG
[3] = molecular target: T1, Beta-lactamase (Pseudomonas aeruginosa, UniProt Q79MP6)
T1 sequence (Q79MP6 whole entry): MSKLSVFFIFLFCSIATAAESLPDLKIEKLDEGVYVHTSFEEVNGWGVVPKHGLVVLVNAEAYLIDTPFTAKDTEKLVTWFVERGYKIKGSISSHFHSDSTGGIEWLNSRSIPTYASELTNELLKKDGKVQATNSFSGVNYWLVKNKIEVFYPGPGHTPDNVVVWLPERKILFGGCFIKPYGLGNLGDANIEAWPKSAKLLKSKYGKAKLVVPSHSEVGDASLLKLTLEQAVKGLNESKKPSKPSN

[4] = molecular target: T2, Beta-lactamase (Salmonella choleraesuis (strain SC-B67), UniProt Q5J463)
T2 sequence (Q5J463 whole entry): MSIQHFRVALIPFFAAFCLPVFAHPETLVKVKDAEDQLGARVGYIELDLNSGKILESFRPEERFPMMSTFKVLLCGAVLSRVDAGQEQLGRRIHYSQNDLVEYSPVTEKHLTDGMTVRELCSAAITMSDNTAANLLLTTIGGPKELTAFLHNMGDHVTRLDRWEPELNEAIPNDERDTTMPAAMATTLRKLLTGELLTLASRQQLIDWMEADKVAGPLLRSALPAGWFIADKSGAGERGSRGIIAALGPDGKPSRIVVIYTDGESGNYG

[5] = system: Jurkat; test: antigen receptor-induced NF-kB inhibitors, dose response, Jurkat, luciferase reporter, luminescence, B- and T-cell (AID 489004); type: functional, cell-based; details: Homo sapiens;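 further: NF-kB luciferase reporter Jurkat cells stimulated with PMA plus ionomycin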
[6] = cytotoxicity in HEK-293T NF-kB-Luc cells, dose response, cytotoxicity control for B/T-cell NF-kB inhibitor project, cell-based, uHTS hits (AID 489019); type: functional;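 further: IC50 reflects cytotoxicity as loss of cell viability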
[7] = system: INS1; test: beta cell apoptosis inhibitors, cytokine rescue, dose response, luminescence, retest (AID 449756); type: functional, cell-based; details: Rattus norvegicus;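 further: cell death triggered by IL-1 beta plus TNF-alpha plus IFN-gamma mixture; protective hits raise ATP signal compared with cytokine alone wells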
[8] = Shn3 3'UTR reporter inhibitors, dose response, cell-based, Clone20 osteoblasts, firefly luciferase, cherry-picked (AID 624132); type: functional;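 further: firefly luciferase luminescence from reporter carrying the Shn3 3'UTR in osteoblasts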
[9] = HepG2 cell cytotoxicity, dose response, cytotoxicity control for Shn3 inhibitor project, CellTiter-Glo, cherry-picked (AID 624134); type: functional, cell-based
[10] = control 3'UTR Renilla luciferase suppression, dose response, counter-screen for Shn3 inhibitor project, cell-based, Clone20-Shn3RL, cherry-picked (AID 624133); type: functional
[11] = molecular target: T3, COUP transcription factor 2 (Homo sapiens, UniProt P24468); test: Luminescence-based cell-based high throughput dose response assay to identify inhibitors of COUP-TFII (NR2F2).; type: functional;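 further: HEK293 cells transiently cotransfected with COUP-TFII expression vector and reporter; luciferase reporter luminescence driven by COUP-TFII from the pX2-168 reporter plasmid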
T3 sequence (P24468 whole entry): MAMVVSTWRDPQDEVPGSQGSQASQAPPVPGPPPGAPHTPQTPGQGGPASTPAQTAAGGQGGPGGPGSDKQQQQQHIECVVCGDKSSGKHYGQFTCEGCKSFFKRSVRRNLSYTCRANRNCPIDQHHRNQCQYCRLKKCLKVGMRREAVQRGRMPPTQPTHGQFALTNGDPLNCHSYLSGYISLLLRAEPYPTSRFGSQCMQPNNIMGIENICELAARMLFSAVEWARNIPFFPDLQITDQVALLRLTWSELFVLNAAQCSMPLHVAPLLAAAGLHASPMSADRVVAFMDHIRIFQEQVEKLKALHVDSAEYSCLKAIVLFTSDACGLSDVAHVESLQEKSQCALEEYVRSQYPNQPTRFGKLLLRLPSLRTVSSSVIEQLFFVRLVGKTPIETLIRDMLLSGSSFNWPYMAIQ

[12] = molecular target: T2, Beta-lactamase; test: Epi-absorbance-based counterscreen for selective VIM-2 inhibitors: dose response biochemical high throughput screening assay to identify inhibitors of TEM-1 serine-beta-lactamase.
[13] = molecular target: T1, Beta-lactamase; test: IMP-1 metallo-beta-lactamase inhibitors, dose response, selectivity assay for VIM-2 inhibitor project, biochemical, epi-absorbance (AID 1920)
[14] = molecular target: T1, Beta-lactamase; test: […] counterscreen for selective VIM-2 inhibitors: dose response biochemical high throughput screening assay to identify inhibitors of IMP-1 metallo-beta-lactamase.
[15] = molecular target: T4, Probable nicotinate-nucleotide adenylyltransferase (Staphylococcus aureus (strain N315), UniProt P65502); type: functional, Staphylococcus aureus subsp. aureus N315;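 on IC50 Mean: confirmatory dose-response retesting of NadD inhibitor hits first found in an ultra-high-throughput screen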
T4 sequence (P65502 whole entry): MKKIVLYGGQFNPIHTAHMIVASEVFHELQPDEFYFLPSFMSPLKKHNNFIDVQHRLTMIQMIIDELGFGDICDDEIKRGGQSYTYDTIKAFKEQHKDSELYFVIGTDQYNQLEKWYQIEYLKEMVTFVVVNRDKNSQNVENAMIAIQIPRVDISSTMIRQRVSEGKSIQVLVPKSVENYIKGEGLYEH

[16] = molecular target: T4, Probable nicotinate-nucleotide adenylyltransferase; type: functional, Staphylococcus aureus subsp. aureus N315; details: read-out: IC50_Mean
[17] = molecular target: Large T antigen (Simian virus 40, UniProt P03070); type: functional, Betapolyomavirus macacae;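 further: Confirmatory-stage PubChem screen for compounds that inhibit SV40 T antigen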
Large T antigen, sequence (P03070 whole entry): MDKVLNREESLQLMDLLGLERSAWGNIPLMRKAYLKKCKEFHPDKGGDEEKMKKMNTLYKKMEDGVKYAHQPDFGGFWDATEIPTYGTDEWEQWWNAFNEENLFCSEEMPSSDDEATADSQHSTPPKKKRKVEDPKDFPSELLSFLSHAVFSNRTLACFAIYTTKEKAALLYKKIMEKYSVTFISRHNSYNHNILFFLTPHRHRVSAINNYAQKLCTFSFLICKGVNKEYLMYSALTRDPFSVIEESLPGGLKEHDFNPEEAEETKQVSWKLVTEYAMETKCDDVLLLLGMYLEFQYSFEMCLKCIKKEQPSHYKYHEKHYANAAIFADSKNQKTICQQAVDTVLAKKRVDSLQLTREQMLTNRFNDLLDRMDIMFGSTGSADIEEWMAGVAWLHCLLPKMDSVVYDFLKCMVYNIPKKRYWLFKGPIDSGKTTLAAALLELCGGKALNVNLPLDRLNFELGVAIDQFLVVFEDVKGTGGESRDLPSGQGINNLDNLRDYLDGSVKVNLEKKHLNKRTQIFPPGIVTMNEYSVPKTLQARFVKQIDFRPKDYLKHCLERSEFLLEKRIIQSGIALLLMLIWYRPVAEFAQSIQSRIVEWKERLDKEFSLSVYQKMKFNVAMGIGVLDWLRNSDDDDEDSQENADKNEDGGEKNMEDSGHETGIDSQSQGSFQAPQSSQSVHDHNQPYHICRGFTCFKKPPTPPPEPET

[18] = inhibitors of intracellular T. cruzi replication, confirmation, NIH3T3 host cells, beta-gal luminescence (AID 2044); type: functional, cell-based;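 further: intracellular parasites grown in NIH/3T3 mouse fibroblasts as host cells; luminescent beta-galactosidase reporter signal from transgenic T. cruzi replicating inside host cells; inhibitors lower the luminescence signal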
[19] = cytotoxicity toward NIH3T3 fibroblasts, dose response, counter-screen, cell-based, ATP luminescence, mouse fibroblasts (AID 2010); type: functional;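 further: cells exposed to compound for about 90 hours before reading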
[20] = Fluorescence-based cell-based high throughput dose response assay for inhibitors of the interaction of nucleotide-binding oligomerization domain containing 2 (NOD2) and the receptor-interacting serine-threonine kinase 2 (RIPK2).; type: functional; details: Homo sapiens
[21] = molecular target: Beta Lactamase (Pseudomonas aeruginosa, UniProt Q932Y6); test: beta-lactamase reporter inhibitor potency, dose response, artefact control for NOD2-RIPK2 interaction inhibitor project, BLA reporter cells, FRET fluorescence (AID 651552); type: functional, cell-based
Beta Lactamase, sequence (Q932Y6 whole entry): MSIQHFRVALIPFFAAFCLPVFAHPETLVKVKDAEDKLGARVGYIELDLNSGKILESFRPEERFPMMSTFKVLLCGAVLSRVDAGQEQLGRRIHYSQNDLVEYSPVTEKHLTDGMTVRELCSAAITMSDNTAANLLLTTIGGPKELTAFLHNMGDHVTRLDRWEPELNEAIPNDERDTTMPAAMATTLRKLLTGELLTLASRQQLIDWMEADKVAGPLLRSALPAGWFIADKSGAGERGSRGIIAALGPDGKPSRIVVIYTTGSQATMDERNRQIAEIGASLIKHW

[22] = molecular target: FAD-linked sulfhydryl oxidase ALR (Homo sapiens, UniProt P55789); test: inhibitors of human ALR sulfhydryl oxidase, dose response, biochemical, H2O2 detection, luminescence, cherry-pick (AID 493248)
FAD-linked sulfhydryl oxidase ALR, sequence (P55789 whole entry): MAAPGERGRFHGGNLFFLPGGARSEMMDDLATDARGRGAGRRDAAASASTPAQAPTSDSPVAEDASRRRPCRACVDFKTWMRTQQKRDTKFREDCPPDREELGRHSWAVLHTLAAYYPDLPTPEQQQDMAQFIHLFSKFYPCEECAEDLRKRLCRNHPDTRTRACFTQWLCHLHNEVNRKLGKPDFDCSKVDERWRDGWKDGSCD

Galanin receptor type 3, sequence (O60755 whole entry): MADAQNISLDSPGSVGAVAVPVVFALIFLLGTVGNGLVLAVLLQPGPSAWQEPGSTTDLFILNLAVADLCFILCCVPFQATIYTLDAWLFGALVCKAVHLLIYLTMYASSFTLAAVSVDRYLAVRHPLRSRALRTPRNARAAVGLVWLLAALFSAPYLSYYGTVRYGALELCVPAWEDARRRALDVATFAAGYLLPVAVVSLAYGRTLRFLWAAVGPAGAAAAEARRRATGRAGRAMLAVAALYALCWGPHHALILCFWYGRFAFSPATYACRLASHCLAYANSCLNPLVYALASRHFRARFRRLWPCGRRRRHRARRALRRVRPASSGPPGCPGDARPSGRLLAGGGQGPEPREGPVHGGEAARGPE

With `CCC(NCCC(c1ccccc1)c1ccccc1)=C1C(=O)NC(=O)NC1=O` the IC50 [1] was 5.36 µM (active) and the EC50 [2] was > 29.9 µM (inactive).

With `CCCCC(Sc1nc(N)c(NC(=O)c2ccco2)c(=O)[nH]1)C(=O)O` (configuration not stated) the IC50 [3] was > 59.6 µM (inactive) and the IC50 [4] was > 59.6 µM (inactive).

For `COc1ccc(CN(C)c2ccc(S(=O)(=O)N3CCN(C)CC3)cc2[N+](=O)[O-])cc1OC`, the IC50 [5] was > 80 µM (inactive), the IC50 [6] was > 80 µM (inactive) and the AC50 [7] was 1.45 µM (active). The AC50 [8] was 0.691 µM (active), the AC50 [9] was 0.824 µM (active) and the AC50 [10] was 23.8 µM (active). The IC50 [1] was 0.419 µM (active), the EC50 [2] was > 29.9 µM (inactive) and the IC50 [11] was 2.05 µM (active).

For `Sc1nnc(C2CC2)n1Cc1ccco1`, the IC50 [12] was > 59.6 µM (inactive), the IC50 [13] was > 59.6 µM (inactive) and the IC50 [14] was > 59.6 µM (inactive).

With `CCC(=O)Nc1ccc(C(=O)COC(=O)c2nc3nccc(C)n3n2)cc1` the IC50 [15] was 1.92 µM (active) and the IC50 [16] was 4.5 µM (active).

In the case of `O=C(Nc1cccc(N2C(=O)C=CC2=O)c1)c1cccs1`, the IC50 [17] is reported as 70.5 µM (active), the EC50 [18] is reported as 2.12 µM (active) and the EC50 [19] is reported as 4.6 µM (active). The IC50 [20] was 2.27 µM (active) and the IC50 [21] was 14.1 µM (inactive).

For `O=C(O)c1c(C(=O)O)c(-c2ccc(Br)cc2)n2c1CSC2`, the IC50 [12] was > 59.6 µM (inactive), the IC50 [13] was > 59.6 µM (inactive) and the IC50 [14] was 41.9 µM (inactive). The AC50 [22] was 5.35 µM (active).
